Laboratory results: ChEMBL document CHEMBL3098064, “Sortase A inhibitory metabolites from the roots of Pulsatilla koreana” (Bioorg Med Chem Lett, 2014)

test: Inhibition of Streptococcus mutans OMZ65 recombinant sortase A delta-40 mutant using Dabcyl-QALPETGEE-Edans as substrate after 1 hr by fluorescence spectrophotometry

Going from `COc1cc([C@H]2Oc3c(OC)cc(CCCO[C@@H]4O[C@H](CO)[C@@H](O)[C@H](O)[C@H]4O)cc3[C@H]2CO)ccc1O` to `COc1cc([C@H]2Oc3c(OC)cc(CCCO)cc3[C@H]2CO[C@@H]2O[C@H](CO)[C@@H](O)[C@H](O)[C@H]2O)ccc1O`, the IC50 rises from 37.3 µM to 82.8 µM (2.2-fold).

Going from `COc1cc(C[C@@H]2COC(=O)[C@@]2(Cc2ccc(O)c(OC)c2)O[C@@H]2O[C@H](CO)[C@@H](O)[C@H](O)[C@H]2O)ccc1O` to `O=C(/C=C/c1ccc(O)c(O)c1)O[C@@H](Cc1ccc(O)c(O)c1)C(=O)O`, the IC50 falls from 41.2 µM to 20.1 µM (2-fold). The second is the more potent here.

`CO[C@@H](Cc1ccc(O)cc1)C(=O)O` and `COc1cc(C[C@@H]2COC(=O)[C@]2(O)Cc2ccc(O)c(OC)c2)ccc1O` cannot be ordered by IC50: over 100 µM for the first, over 100 µM for the second.

Going from `COc1cc([C@H]2Oc3c(OC)cc(CCCO)cc3[C@H]2CO)ccc1O` to `O=C(/C=C/c1ccc(O)c(O)c1)O[C@H](C(=O)O)[C@@H](OC(=O)/C=C/c1ccc(O)c(O)c1)C(=O)O`, the IC50 rises from 35.9 µM to 60 µM (1.7-fold).

Going from `COc1cc([C@@H]2OC[C@@H]3[C@H]2CO[C@H]3c2ccc(O)c(OC)c2)ccc1O` [(+)-PINORESINOL] to `O=C(O)/C=C/c1ccc(O)c(O)c1` [CAFFEIC ACID], the IC50 falls from 67.7 µM to 20.2 µM (3.4-fold).

`COc1cc(/C=C/C(=O)O)ccc1O` [FERULATE] and `COc1cc(C[C@H]2COC(=O)[C@@H]2Cc2ccc(O)c(OC)c2)ccc1O` [MATAIRESINOL] cannot be ordered by IC50: over 100 µM for the first, over 100 µM for the second.

Compound Para-Hydroxymercuribenzoic acid has an IC50 of 35.1 µM.
